We go through eight molecules from paper PMC4237307 (Chembiochem : a European journal of chemical biology, 2014).

One data set relates to liver stage P. berghei. Nature of the data set: Time course of liver stage parasite inhibition. The conditions noted are these: inhibitor added to infected liver cells.
Data set [1] relates to liver stage P. berghei ANKA. Type of data set: cell-based.
For data set [2], the system named is P. berghei-luciferase sporozoites. The data set is described as follows: Mouse liver stage malaria model, parasite load in livers by in vivo imaging. Details: species or system C57BL/6 mice.
In another data set the test system is P. berghei. The data set is described as follows: P. berghei parasitemia in mice after prophylactic treatment. It is filed as in vivo. The settings on record: single oral dose 100 mg/kg b.w. before infection.
The target in another data set is PfPK5 (Plasmodium falciparum, UniProt P61075). Type of data set: binding. The conditions noted are these: for Percent binding to PfPK5: 10 μM compound.
For data set [3], the system named is blood stage P. falciparum Dd2. The data set is described as follows: Blood stage malaria dose-response assay. Type of data set: cell-based. The conditions noted are these: read-out: Blood stage malaria IC50.
The test system of a further data set is mTOR. The settings on record: read-out: IC50 mTOR; cited from earlier work.
Data set [4] relates to liver and blood stage P. berghei. The settings on record: cited from earlier work.
For data set [5] the following is noted: mouse, in vivo.

The structures appear in SMILES notation.

Chain of PfPK5 (P61075 whole entry): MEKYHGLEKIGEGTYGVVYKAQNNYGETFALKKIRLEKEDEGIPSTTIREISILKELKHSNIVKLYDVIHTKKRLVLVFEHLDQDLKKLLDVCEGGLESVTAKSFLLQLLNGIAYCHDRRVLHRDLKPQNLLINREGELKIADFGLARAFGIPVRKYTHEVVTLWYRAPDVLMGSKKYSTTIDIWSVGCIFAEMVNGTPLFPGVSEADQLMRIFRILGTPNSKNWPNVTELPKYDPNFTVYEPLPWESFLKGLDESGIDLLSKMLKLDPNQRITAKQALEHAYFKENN

`CCC(=O)N1CCN(c2ccc(-n3c(=O)ccc4cnc5ccc(-c6cnc7ccccc7c6)cc5c43)cc2C(F)(F)F)CC1` [Torin1]: the “Parasite inhibition with 12-hour treatment” value in the data set with liver stage P. berghei is “inhibit parasites with only a 12-hour treatment”. For the molecule `CNC(=O)c1cc(Oc2ccc(NC(=O)Nc3ccc(Cl)c(C(F)(F)F)c3)cc2)ccn1` [Nexavar], the “Inhibition of parasite load in liver cells” value in [1] (low micromolar concentration) is reported as “completely inhibited parasite load in liver cells”.

Take `Cc1nc(N)sc1-c1ccnc(Nc2ccc(N3CCOCC3)cc2)n1` [CYC-116]: the “Stage selectivity (blood stage IC50 vs liver stage IC50)” value in data set [1] was “inhibited liver stage P. berghei significantly more potently than blood stage P. falciparum”. In addition, the “Parasite load in mouse livers vs vehicle” value in [2] (single oral dose 100 mg/kg b.w. before infection) is recorded as “significantly reduced parasite load in mouse livers”. The “P. berghei parasitemia vs vehicle” value in the data set with P. berghei is on record as “reduction in P. berghei parasitemia”. One may read the Kd as the equilibrium constant for the complex coming apart. As for `Cc1ccc([N+](=O)[O-])cc1S(=O)(=O)N(C)/N=C/c1cnc2ccc(Br)cn12` [PIK-75], the “Percent binding to PfPK5” value at PfPK5 is > 50%. In addition, the Kd at PfPK5 (read-out: Kd for PfPK5, competition binding, absence of ATP) is < 10 µM. As for `FC(F)c1nc2ccccc2n1-c1nc(N2CCOCC2)nc(N2CCOCC2)n1` [ZSTK474], the “Parasite inhibition with 12-hour treatment” value in the data set with liver stage P. berghei is on record as “inhibit parasites with only a 12-hour treatment”. Consider `CN1CC[C@H](c2c(O)cc(O)c3c(=O)cc(-c4ccccc4Cl)oc23)[C@H](O)C1` [Flavopiridol], for which, on PfPK5, the “Percent binding to PfPK5” value is reported as > 50%. By IC50 is commonly meant the concentration needed to halve the response being measured. Turning to `Nc1ccc(-c2ccc3ncc4ccc(=O)n(-c5cccc(C(F)(F)F)c5)c4c3c2)cn1` [Torin2], the IC50 in [1] (read-out: Liver stage malaria IC50, liver stage) is 40 nM; in data set [3], 1 nM; in the data set with mTOR, […]. For the same molecule, in [4], the “Activity in mouse animal model” value was “exhibits activity against liver and blood stage P. berghei”. For the molecule `CC(C)(C)c1cnc(CSc2cnc(NC(=O)C3CCNCC3)s2)o1` [SNS-032], in data set [2] (single oral dose 75 mg/kg b.w. before infection), the “Parasite load in mouse livers vs vehicle” value is listed as “reduce parasite load in mouse livers”. Moreover, the Toxicity to mice entry in data set [5] was “relatively limited toxicity to mice”.
